In patent publication US6107070A, “Human manganese superoxide dismutase proteins” (University of Florida, priority 1998, dated 2000):
Where a chain is given by its changes, count along the chain named. “And” between values parts separate entries of the source, which are not always exact repeats. Identical values can stand only once. Like-named read-outs stand apart in the source and are kept apart here.

Key:
[1] = molecular target: T1, human manganese superoxide dismutase (hMn SOD), wild type, SEQ ID NO:2 (Homo sapiens, UniProt P04179); assay: Decay of superoxide catalyzed by wild-type hMnSOD, pulse radiolysis; format: biochemical; conditions: obtained from Table 3 data and eqs 5-9 of Bull et al. (1991)
T1 construct: where it is then cleaved off leaving the mature protein
T1 sequence (P04179 25-222): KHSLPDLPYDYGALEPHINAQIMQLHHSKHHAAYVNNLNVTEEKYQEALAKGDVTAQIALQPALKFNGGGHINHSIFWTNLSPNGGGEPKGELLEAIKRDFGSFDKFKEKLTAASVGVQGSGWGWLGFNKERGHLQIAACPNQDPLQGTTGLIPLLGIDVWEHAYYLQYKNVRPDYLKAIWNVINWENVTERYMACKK
Experimental: Experiments were carried out at the Center for Fast Kinetics Research at the University of Texas at Austin using a 4-Mev van der Graaff accelerator. A single high-dose electron pulse was used to generate superoxide radical anions from oxygen in acqueous solutions containing 10 mM sodium formate as hydroxyl radical scavenger (Schwartz, 1981) and 50 μM EDTA in addition to buffer and enzyme. All pulse radiolysis experiments were carried out at 20 ° C. The dismutation of O2^- was followed spectrophotometrically from its absorbance at 250 nm (ε=2000M^1 cm^1, Rabani and Nielson, 1969) with a path length of 2.5 cm. Progress curves for each set of 6 to 9 experiments were averaged. Exposure to ultraviolet radiation was minimized by opening a mechanical shutter a fraction of a second before each pulse.

[2] = molecular target: T2, human manganese superoxide dismutase (hMn SOD) variant Q143N (Gln 143 replaced by Asn), SEQ ID NO:3 (Homo sapiens, UniProt P04179, Q167N); assay: Decay of superoxide catalyzed by Q143N hMnSOD, stopped-flow spectrophotometry at 5° C.; format: biochemical
T2 construct: as a mature protein tagged with an extra Met at the amino terminus; made in house; host or cells: E. coli QC774 (SodA/SodB mutant), pTrc99A
T2 sequence (P04179 25-222 Q167N): T1 sequence (P04179 25-222) with Q143N
Experimental: Experiments were based on the stabilization of KO2 in aprotic solvent and the subsequent large dilution of this solution by an aqueous solution of enzyme in a stopped-flow apparatus, as described by McClune and Fee (1978). KO2 was dissolved in a mixture of dimethyl sulfoxide and […] (2:1 by volume; Aldrich, spectrophotometric grade) with solubility of KO2 enhanced with 18-crown-6 (Valentine and Curtis, 1975). The stopped-flow spectrophotometer (Kinetic Instruments, Ann Arbor, Mich.) was capable of efficient mixing of this solution with an acqueous solution of enzyme in buffer with a dead time between 1.5 and 2.0 ms. One drive syringe (capacity 50 μl) contained the aprotic solution of O2. This was diluted fifty-fold by the contents of a second syringe (capacity 2.5 ml) which contained enzyme, EDTA, and buffer. The decay of superoxide in initial velocity experiments and progress curves was monitored by its absorption at 250 to 300 nm. Stopped-flow experiments were carried out at […]. Four or more kinetic traces were averaged to reduce noise. Steady-state parameters were obtained by least-squares analysis of such data (Leatherbarrow (1987) "Enzfitter: a nonlinear regression data analysis program for the IBM PC" Elsevier BIOSOFT, Cambridge).

[3] = molecular target: T3, human manganese superoxide dismutase (hMn SOD) variant H30K (Homo sapiens, UniProt P04179, H54K); assay: Disproportionation of superoxide by H30K hMnSOD, 20° C.; format: biochemical; conditions: Table 4; pH 9.4, 20° C.
T3 construct: as a mature protein tagged with an extra Met at the amino terminus; made in house
T3 sequence (P04179 25-222 H54K): T1 sequence (P04179 25-222) with H30K

[4] = molecular target: T1, human manganese superoxide dismutase (hMn SOD), wild type, SEQ ID NO:2; conditions: cited from earlier work
[5] = FIG. 2, Michaelis-Menten fit, H2O, 50 mM glycine buffer, 1 mM EDTA, pH 9.4, 5° C.
[6] = Table 1, stopped-flow spectrophotometry, 5° C., pH 9.4
[7] = Table 2, KINSIM fit of FIG. 8 scheme to stopped-flow data, 5° C., pH 9.4
[8] = Table 1, pulse radiolysis, 20° C., pH 9.6 (Hsu et al., 1996)
[9] = Table 2, KINSIM fit of FIG. 8 scheme to pulse radiolysis data, 20° C., pH 9.6
[10] = Table 3, KINSIM fit to pulse radiolysis data, 20° C., pH 9.6

SMILES: [O]O [superoxide]
- Km [1]: 50 µM
- kcat [2, 5]: 160 s⁻¹
- kcat /Km [2, 5]: 850000 M⁻¹ s⁻¹
- maximal value of Kcat /Km ([2]; FIG. 3, fit of pH profile pH 8.5 to 10.5, 5° C.): ~7×10^6 M^-1 s^-1 and 7±3×10^6 M^-1 s^-1
- maximal value of Kcat ([2]; FIG. 4, fit of pH profile, 5° C., in 1/s): 310±30
- kcat [2, 6]: 0.3 ms^-1
- kcat /km [2, 6]: 820000 M⁻¹ s⁻¹
- k1 [2, 7]: 2e+09 M⁻¹ s⁻¹
- k2 [2, 7]: 600 s⁻¹
- k3 [2, 7]: 2e+09 M⁻¹ s⁻¹
- k4 [2, 7]: 600 s⁻¹
- k-1 [2, 7]: 1.5e+06 s⁻¹
- k-4 [2, 7]: 1000 M⁻¹ s⁻¹
- k-5 ([2]; Table 2, KINSIM fit, dead-end complex, 5° C., pH 9.4): 200 s⁻¹
- k5 ([2]; Table 2, KINSIM fit, formation of dead-end complex, 5° C., pH 9.4): 20000 s⁻¹
- kcat /Km ([2]; observed at pH 9.4, 5° C.): 7×10^5 M^1 s^1
- maximal value of Kcat ([2]; pH dependence (FIG. 4)): ~300 s⁻¹
- kcat [3]: 0.74 ms^.1
- kcat /Km [3]: 0.80 μM^.1 S^.1
- kcat [4, 8]: 40 ms^-1
- kcat /km [4, 8]: 8e+08 M⁻¹ s⁻¹
- k1 [4, 9]: 2e+09 M⁻¹ s⁻¹
- k3 [4, 9]: 2e+09 M⁻¹ s⁻¹
- k4 [4, 9]: 80000 s⁻¹
- k-1 [4, 9]: 20000 s⁻¹
- k-3 [4, 9]: 20000 s⁻¹
- k-4 [4, 9]: 300 M⁻¹ s⁻¹
- k-5 ([4]; Table 2, KINSIM fit, dead-end complex, 20° C., pH 9.6): 130 s⁻¹
- k5 ([4]; Table 2, KINSIM fit, formation of dead-end complex, 20° C., pH 9.6): 20000 s⁻¹
- k1 [4, 10]: 20000 s⁻¹
- k3 [4, 10]: 20000 s⁻¹
- k4 [4, 10]: 300 M⁻¹ s⁻¹
- k5 [4, 10]: 130 s⁻¹
- k-1 [4, 10]: 2e+09 M⁻¹ s⁻¹
- k-3 [4, 10]: 2e+09 M⁻¹ s⁻¹
- k-4 [4, 10]: 80000 s⁻¹
- k-5 [4, 10]: 2 × 10^4
- k2 ([4]; Tables 2 and 3, KINSIM fit of FIG. 8 scheme to pulse radiolysis data, 20° C., pH 9.6): 80000 s⁻¹
- kcat /km (diffusion controlled) ([4]; approximate value): ~10^9 M^-1 s^-1
- kcat /Km ([4]; pH 9.6, 20° C. (Hsu et al., 1996)): 8e+08 M⁻¹ s⁻¹
